The values below come from paper PMC8648872, “A host-directed macrocyclic peptide therapeutic for MDR gram negative bacterial infections” (Scientific Reports, 2021).

≈ marks a conversion by molar mass, not a printed value. Where a SMILES comes first, the peptide text is derived from it. Bridges are numbered along the chain shown (N, C = ends).

The subject of one test is plasma cytokines. The test can be described thus: Plasma multiplex cytokine analysis in Kp-1705 sepsis. Type of test: in vivo, BALB/c mice. To be noted: 1.25 mg/kg i.p. 1 h p.i. The protocol:
EDTA-anticoagulated blood was collected aseptically by terminal cardiac puncture and analyzed for complete blood cell count using an Element HT5 hematology analyzer (Heska). Blood plasma and clarified peritoneal lavage were prepared by two-step centrifugation described previously. Plasma cytokine levels were quantified using a mouse-specific MILLIPLEX MAP kit (Millipore Cat# MCYTMAG-70K) as described.
Supplemental Table 1. Mice were challenged i.p. with Kp-1705 and treated 1 h later with MTD12813 (1.25 mg/kg i.p.) or saline. The sham cohort received bacteria-free suspension buffer at t=0 followed by saline 1 h later. Mice were euthanized 2, 4, or 24 h p.i., and plasma samples were subjected to multiplex cytokine analysis. P values calculated using ANOVA with Uncorrected Fisher’s LSD comparing saline and MTD12813 treated mice at respective time points.

Another test has as its system RAW 264.7 macrophages. The experiment in a line: Phagocytosis assay, RAW 264.7 macrophages with live Kp-1705. Type of test: cell-based, mouse. The note with it: RAW 264.7 cells, live Kp-1705, MOI 50:1, 0–10 µg/ml peptide, 30 min, 37 °C. As for the experimental part:
Mouse RAW 264.7 macrophages (RAW cells; ATCC, TIB-71) were grown in Dulbecco’s Modified Eagle Medium (DMEM) with 10% heat-inactivated fetal bovine serum (HI-FBS) with 100 U/ml penicillin/streptomycin, and suspended to 2–3 × 10^6 cells/ml in fresh media before use.
Kp-1705 was grown overnight, harvested by centrifugation, washed twice, resuspended in Hank’s Balanced Salt Solution (HBSS), and adjusted to a density of 2.5 × 10^8 CFU/ml. Bacteria were pre-incubated with varied concentrations of MTD12813 at room temperature for 30 min, and incubated (MOI 50:1) with RAW cells (2.5 × 10^6 cell/ml) with orbital shaking at 37 °C for 30 min. Cytospin preparations of 100 µl (2.5 × 10^5 RAW cells/slide) samples were then prepared, fixed with methanol, and stained with hematoxylin and eosin (H & E). Slides were viewed at 100× and 50 RAW cells selected from random fields were manually counted for number of cell associated bacteria. All samples were run in duplicate and experiments performed twice.

A further test relates to E. coli ML35. The experiment in a line: microbe, parasite or virus in culture. Type of test: cell-based. The note with it: E. coli ML35, no MDR factor. The protocol: (§1) Bacterial strains were obtained from American Type Culture Collection. K. pneumoniae strains included BAA-1705 (blaKPC-2, hypermucoid), BAA-2146 (blaNDM-1), BAA-700603 (SHV-18, extended spectrum β-lactamase, ESBL), and BAA-1706 (non-CRE reference strain). E. coli strains included BAA-2340 (blaKPC-2), BAA-2471 (blaNDM-1), and ML35 (non-CRE reference strain).
(§2) Minimum inhibitory concentration (MIC) assays were performed ± 50% heat-inactivated mouse serum using Clinical and Laboratory Standards Institute (CLSI; document M07-A9) protocols. Bacteria (5 × 10^5 CFU/ml) were incubated with antibiotics or peptide for 20 h at 37 °C, and bacterial growth was determined by A620 using a SpectraMax M5e plate reader.

Another test concerns K. pneumoniae BAA-1706. The experiment in a line: microbe, parasite or virus in culture. Type of test: cell-based. To be noted: K. pneumoniae BAA-1706, no MDR factor. The protocol: as §1, §2
The subject of test [1] is K. pneumoniae 700603 (ESBL). The test can be described thus: microbe, parasite or virus in culture. Type of test: cell-based. As for the experimental part:
as §1, §2

The next test concerns E. coli BAA-2340 (KPC-2). The experiment in a line: microbe, parasite or virus in culture. The class given is cell-based. The note with it: E. coli BAA-2340, KPC-2. As for the experimental part:
as §1, §2

Test [2] concerns K. pneumoniae BAA-2146 (NDM-1). The experiment in a line: microbe, parasite or virus in culture. The class given is cell-based. As for the experimental part: as §1, §2
Test [3] relates to K. pneumoniae BAA-1705 (KPC-2). The test can be described thus: microbe, parasite or virus in culture. The class given is cell-based. The note with it: 20 h, 37 °C. The protocol: as §1, §2
The next test has as its system E. coli BAA-2471 (NDM-1). The test can be described thus: microbe, parasite or virus in culture. Type of test: cell-based. As for the experimental part:
as §1, §2

The test system of another test is Kp-1705. The experiment in a line: Challenge with MTD12813-preincubated Kp-1705, survival. The class given is in vivo, BALB/c mice. As for the experimental part: Cryopreserved Kp-1705 was suspended in PBS to a density of ca. 1 × 10^9 CFU/ml, and incubated with saline or 1.25 µg/ml MTD12813 at room temperature for 1 h. Mice (n = 26) were then infected i.p. with 500 µl of saline- or MTD12813- pretreated Kp-1705, and a third cohort (n = 12) received 500 µl i.p. of 1.25 µg/ml MTD12813 immediately following infection with saline treated Kp-1705. Five mice from each cohort were euthanized 4 h p.i., and peritoneal lavage was collected for bacterial burden determination and cytospin preparation. In vitro antibacterial activity of MTD12813 (1.25 μg/ml) -treated cells (1 h; 37 °C) was determined by plating saline or peptide treated cells on TSA plates. Growth kinetics of saline and MTD12813-treated cells was determined by diluting samples from the 1 h incubation mixtures 1:40 into TSB and monitoring growth (620 nm) for 5.5 h at 37 °C. Antibacterial activity of MTD12813 in PF was determined by i.p. injection of naïve male BALB/c mice (n = 5 per group) with 1.25 mg/kg of MTD12813 or saline i.p. (10 ml/kg). […] Peritoneal fluid was clarified by centrifugation at 1200×g and an aliquot used to quantify MTD12813 by LC–MS/MS, as described above. Antimicrobial activity was determined by incubating PF (9:1 vol/vol) with Kp-1705 at a final density of 3 × 10^7 CFU/ml. […]

Where [4] appears, read: 50% heat inactivated mouse serum.
The mark [5] stands for this setting: CLSI, 20 h, 37 °C, A620, no serum.

With `CC[C@H](C)[C@@H]1NC(=O)[C@@H]2CSSC[C@H](NC(=O)[C@H]([C@@H](C)CC)NC(=O)[C@@H]3CSSC[C@H](NC1=O)C(=O)N[C@@H](C(C)C)C(=O)NCC(=O)N[C@@H](CCCNC(=N)N)C(=O)NCC(=O)N3)C(=O)N[C@@H](C(C)C)C(=O)N[C@@H](CCCNC(=N)N)C(=O)N[C@@H](CCCNC(=N)N)C(=O)N[C@@H](CCCNC(=N)N)C(=O)N2` [MTD12813] (cyclo(CICVGRGCICVRRR); disulfide 1-10, 3-8), the “plasma CCL4 and CXCL2” value with plasma cytokines (2 h p.i.) is recorded as “statistically significant reductions”. Also, the “plasma IL-9 and IL-15 levels” value with plasma cytokines (4 h p.i.) is recorded as “significant increases”. Besides, the “plasma TNF, IL-6 and CXCL1 (KC)” value in the test with plasma cytokines (4 h p.i.) is “significantly reduced”. Besides, the “change of plasma TNF versus saline” value in the test on plasma cytokines (24 h p.i.) is listed as -89.8%. Also, the “concentration of maximal phagocytic activity” value with RAW 264.7 macrophages was 0.313 µg/mL. The MIC against E. coli ML35 (setting [4]) is above 100 µg/mL; in the test on E. coli ML35 (setting [5]), 3.13 µg/mL (≈ 1.99 µM); against K. pneumoniae BAA-1706 (setting [4]) it was above 100 µg/mL; with K. pneumoniae BAA-1706 (setting [5]), 3.13 µg/mL (≈ 1.99 µM); in test [1] (setting [4]), above 100 µg/mL; in test [1] (setting [5]), 6.25 µg/mL (≈ 3.98 µM). Further, the MIC is above 100 µg/mL against E. coli BAA-2340 (KPC-2) (setting [4]); 6.25 µg/mL (≈ 3.98 µM) against E. coli BAA-2340 (KPC-2) (setting [5]); above 100 µg/mL in [2] (setting [4]); 6.25 µg/mL (≈ 3.98 µM) in [2] (setting [5]); 6.25 µg/mL (≈ 3.98 µM) in test [3] (CLSI M07-A9, 5 × 10^5 CFU/ml, A620, no serum); above 100 µg/mL in test [3] (in the presence of 50% heat inactivated mouse serum, A620). For the same compound, the figures for the MIC in the test with E. coli BAA-2471 (NDM-1) (setting [4]) and in the test on E. coli BAA-2471 (NDM-1) (setting [5]) were 100 µg/mL (≈ 63.6 µM) and 3.13 µg/mL (≈ 1.99 µM), respectively. In the test with Kp-1705 (0.5 ml of 1.25 µg/ml i.p. after saline-preincubated Kp-1705, n = 12), the “survival, equal quantity of peptide given immediately following infection” value is reported as “no statistically significant protection”. In the test on Kp-1705 (Kp-1705 preincubated 1 h with 1.25 µg/ml MTD12813, 500 µl i.p., n = 26), the “survival after challenge with preincubated bacteria” value is listed as “protected”.
